Source: patent US20260263482A1, “COMPOSITION AND METHOD FOR INDUCING LUTEOLYSIS” (WELFARE CONCEPTS LIMITED, priority 2023, published 2026)
Where two headings read alike, the source gives them in different places. Blank lines part the entries; values can stand above or below the molecule they belong to.

Columns and labels:
[1] = Titration of cloprostenol sodium with calcium or zinc salts, cloprostenol in supernatant by HPLC; type: physicochemical
Protocol: Water-insoluble salts of cloprostenol were investigated as a means of prolonging release of cloprostenol after administration. Solutions of cloprostenol sodium were titrated with calcium chloride, zinc chloride or zinc acetate solutions. The resulting mixtures were vortexed, left to stand overnight then observed for precipitation possibly due to formation of an insoluble salt. Samples with a visible precipitate were centrifuged at 15000 rpm for 5 min and the supernatant was then removed for analysis of cloprostenol by validated HPLC.

[2] = physchem; type: physicochemical; details: for solubility: water, water solubility
Protocol: Water-in-oil (w/o) emulsions of cloprostenol sodium were investigated for use as sustained release compositions of cloprostenol. […] In aqueous solution cloprostenol sodium micellises at concentrations around 5-10 mg/ml. The minimum quantity of water to dissolve a 3 mg dose of cloprostenol (as the sodium salt) is around 0.1 ml. Accordingly, a target volume of 2 ml of water-in-oil emulsion requires a minimum proportion of around 5% water to incorporate a 3 mg dose of cloprostenol.

[3] = Authors' study / animal trial: half-life from terminal slope of plasma concentration versus time profile; type: in vivo; details: cattle, intramuscular
Protocol: Literature has reported a half-life for cloprostenol of around 90 minutes, with a maximum concentration reached at around 10 to 20 minutes after administration.
The inventors have also used various models to describe the absorption kinetics of cloprostenol. The most recent model was to describe the release from SAIB formulations as occurring as a burst of some percentage of the dose followed by a rate of release proportional to the square root of time. In an animal trial, the inventors calculated the terminal slope of the plasma concentration versus time profile. If absorption is very rapid—ie. as from standard cloprostenol injection, Ovuprost™, this terminal slope is related to the elimination half-life of the cloprostenol. The inventors found this half-life to be 1 hour. The literature reports the elimination half-life of cloprostenol to be 1.5-3 hours. If absorption is slow, the terminal slope relates to the absorption rate of the cloprostenol from the injection.
In cattle, the conventional intramuscular injected dose of natural PGF2α is 25 mg whereas the intramuscular injected dose of cloprostenol in 0.5 mg. PGF2α has a half-life of about 8-10 minutes whereas the cloprostenol half-life is from around 1 hour as determined by the authors' study and reported elsewhere as 1.5-3 hours.

[4] = Chemical stability of cloprostenol in ethanol and Transcutol; type: physicochemical; details: 40° C., 4 days, HPLC
Protocol: The chemical stability of cloprostenol was tested in ethanol and Transcutol. A cloprostenol solution (1 mg/ml) was prepared in each solvent and stored in at 40° C. for 4 days. The solutions were then removed and injected into HPLC for cloprostenol quantification and the chromatogram inspected for the formation of new (degradation) peaks. Cloprostenol in solution in ethanol and Transcutol at 40° C. was stable for the 4 days tested. […] There were no degradation peaks in the chromatograms.

[5] = literature; cited from earlier work

solubility of the calcium salt ([1]; titration with calcium chloride, mixtures remained apparently clear): good solubility
SMILES: O=C([O-])CCCC=CCC1C(O)CC(O)C1C=CC(O)COc1cccc(Cl)c1.O=C([O-])CCCC=CCC1C(O)CC(O)C1C=CC(O)COc1cccc(Cl)c1.[Ca+2] (stereo not drawn) [calcium cloprostenol]

concentration at which it micellises in aqueous solution [2]: 5000 to 10000 µg/mL
solubility [2]: > 10 mg/mL
solubility ([2]; estimated): ~35 mg/mL
SMILES: O=C(O)CCC/C=C\CC1C(O)CC(O)C1/C=C/C(O)COc1cccc(Cl)c1 (stereo not drawn) [cloprostenol sodium]

half-life ([3]; Holstein, 0.5 mg, very rapid absorption, standard cloprostenol injection, read-out: half-life (terminal slope, elimination) (converted)): ~1 h
half-life ([3]; 0.5 mg cloprostenol as the sodium salt in a fast-release aqueous composition, read-out: estimated half-life of cloprostenol in plasma): 0.25 to 1 h
cloprostenol still contained in supernatant at best yield of precipitate ([1]; zinc acetate): around 50%
cloprostenol still contained in supernatant at best yield of precipitate ([1]; zinc chloride as counter cation): around 74%
measured drug content ([4]; 1 mg/ml in Transcutol): 102%
measured drug content ([4]; 1 mg/ml in ethanol): 101%
SMILES: O=C(O)CCC/C=C\CC1C(O)CC(O)C1/C=C/C(O)COc1cccc(Cl)c1 (stereo not drawn) [cloprostenol]
elimination half-life of cloprostenol [5]: 1.5 to 3 h
half-life for cloprostenol [5]: around 90 minutes
